Assay results reported in PMC3664942 (Physical chemistry chemical physics : PCCP, 2013).
pKd: −log10 of the molar value.

What was measured:
metal-free Aβ1-40 = conditions: read-out: Kd relative to Aβ monomer; absence of metal ions; cited from earlier work
Aβ1-40 = test: nESI-IM-MS neuropeptide screen for binding with Aβ1-40; conditions: for Complex formation with Aβ1-40 detected by nESI-IM-MS: 20 μM Aβ1-40, one equivalent of neuropeptide, pH 6.9, 1 h on ice; for Aβ complexes detected by IM-MS: neuropeptide added in large excess in solution
hippocampal neurons = conditions: μM concentrations; cited from earlier work

Substance | pKd (metal-free Aβ1-40) | Complex formation with Aβ1-40 detected by nESI-IM-MS (Aβ1-40) | Aβ complexes detected by IM-MS (Aβ1-40) | Inhibition of Aβ-induced neurotoxicity (hippocampal neurons)
(–)-epigallocatechin-3-gallate [EGCG] | ~4.22 | – | – | –
Somatostatin 14 | – | not evident | No Aβ complexes were detected | –
neurotensin | – | not evident | No Aβ complexes were detected | –
substance P | – | not evident | No Aβ complexes were detected | inhibitors of Aβ-induced neurotoxicity
galanin | – | detected | – | –
physalaemin [reference compound] | – | – | – | inhibitors of Aβ-induced neurotoxicity
